Data reported in the supplement of paper PMC10307832.

Experiments:
Assay in all cases: relative viability (nuclei count vs DMSO), 5 days (fraction); higher = more cells survive
[1] = compound: CC1=CC(=CC=C1)NC2=NC(=CS2)C3=CC=NC=C3 + Cc1nc(NC(=O)N2CCC[C@H]2C(N)=O)sc1-c1ccnc(C(C)(C)C(F)(F)F)c1 [Alpelisib] (partner 2 µM)
Method in brief: (§1)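 Relative viability divides the nuclei count in treated wells by that in vehicle wells. Lung cancer cell lines were seeded in 1536-well plates, dosed by pin tool the next day, and fixed and stained after 5 days in one step with final 0.05% Triton X-100, 1% formaldehyde and 1 ug/ml Hoechst. Dosing was a single drug or a fixed anchor-drug dose plus five library-drug doses (not always all listed) in √10 steps, and values are medians of duplicate plates imaged at 4×.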

[2] = compound: CC1=CC(=CC=C1)NC2=NC(=CS2)C3=CC=NC=C3 + Cc1nc(Nc2ncc(C(=O)Nc3c(C)cccc3Cl)s2)cc(N2CCN(CCO)CC2)n1 [Dasatinib] (partner 0.075 µM)
Method in brief: as §1

Masitinib + Foretinib = compound: Cc1ccc(NC(=O)c2ccc(CN3CCN(C)CC3)cc2)cc1Nc1nc(-c2cccnc2)cs1 [Masitinib] + COc1cc2c(Oc3ccc(NC(=O)C4(C(=O)Nc5ccc(F)cc5)CC4)cc3F)ccnc2cc1OCCCN1CCOCC1 [Foretinib] (partner 0.25 µM)
Method in brief: as §1

Masitinib + Crizotinib = compound: Cc1ccc(NC(=O)c2ccc(CN3CCN(C)CC3)cc2)cc1Nc1nc(-c2cccnc2)cs1 [Masitinib] + C[C@@H](Oc1cc(-c2cnn(C3CCNCC3)c2)cnc1N)c1c(Cl)ccc(F)c1Cl [Crizotinib] (partner 1 µM)
Method in brief: as §1

| Cell Line | relative viability ([1]; first compound 0.08 µM) | relative viability ([1]; first compound 0.253 µM) | relative viability ([1]; first compound 0.8 µM) | relative viability ([1]; first compound 2.53 µM) | relative viability ([1]; first compound 8 µM) | relative viability ([2]; first compound 0.08 µM) | relative viability ([2]; first compound 0.253 µM) | relative viability ([2]; first compound 0.8 µM) | relative viability ([2]; first compound 2.53 µM) | relative viability ([2]; first compound 8 µM) | relative viability (Masitinib + Foretinib; first compound 0.01 µM) | relative viability (Masitinib + Foretinib; first compound 0.03162 µM) | relative viability (Masitinib + Foretinib; first compound 0.1 µM) | relative viability (Masitinib + Foretinib; first compound 0.3162 µM) | relative viability (Masitinib + Foretinib; first compound 1 µM) | relative viability (Masitinib + Crizotinib; first compound 0.01 µM) | relative viability (Masitinib + Crizotinib; first compound 0.03162 µM) | relative viability (Masitinib + Crizotinib; first compound 0.1 µM) | relative viability (Masitinib + Crizotinib; first compound 0.3162 µM) | relative viability (Masitinib + Crizotinib; first compound 1 µM) |
| --- | --- | --- | --- | --- | --- | --- | --- | --- | --- | --- | --- | --- | --- | --- | --- | --- | --- | --- | --- | --- |
| LXF-289 | 0.993 | 1.03 | 1.02 | 1.03 | 0.91 | 0.194 | 0.214 | 0.224 | 0.183 | 0.159 | 0.792 | 0.965 | 0.951 | 1.01 | 0.988 | 0.701 | 0.783 | 0.818 | 0.835 | 0.802 |
| NCI-H23 | 0.567 | 0.677 | 0.727 | 0.634 | 0.738 | 0.74 | 0.542 | 0.741 | 0.714 | 0.792 | 0.945 | 1.05 | 1.04 | 0.564 | 1.01 | 0.524 | 0.423 | 0.597 | 0.463 | 0.465 |
| NCI-H322M | 0.747 | 0.868 | 0.771 | 0.903 | 0.853 | 0.244 | 0.222 | 0.257 | 0.264 | 0.259 | 0.973 | 0.896 | 1.02 | 0.935 | 0.948 | 0.745 | 0.956 | 1.02 | 0.9 | 0.873 |
| NCI-H358 | 0.662 | 0.772 | 0.645 | 0.929 | 0.791 | 0.214 | 0.173 | 0.182 | 0.185 | 0.263 | 0.769 | 0.81 | 0.784 | 0.625 | 0.591 | 0.406 | 0.534 | 0.588 | 0.473 | 0.533 |
| NCI-H441 | 0.659 | 0.75 | 0.73 | 0.577 | 0.811 | 0.584 | 0.482 | 0.834 | 0.585 | 0.585 | 0.909 | 0.976 | 1.12 | 1.48 | 0.691 | 0.741 | 0.804 | 0.919 | 0.665 | 0.696 |
| NCI-H460 | 0.331 | 0.368 | 0.375 | 0.37 | 0.307 | 0.44 | 0.306 | 0.554 | 0.381 | 0.343 | 1.02 | 1.08 | 1.06 | 0.864 | 0.977 | 0.748 | 0.763 | 1.03 | 0.647 | 0.911 |
| NCI-H520 | 0.741 | 0.855 | 0.726 | 1.09 | 1.02 | 0.225 | 0.239 | 0.25 | 0.209 | 0.243 | 0.899 | 0.937 | 0.987 | 0.695 | 0.762 | 0.766 | – | 0.921 | 0.908 | 0.577 |
| NCI-H596 | 0.421 | 0.402 | 0.35 | 0.412 | 0.401 | 0.501 | 0.507 | 0.584 | 0.524 | 0.435 | 0.859 | 0.9 | 0.947 | 0.869 | 0.891 | 0.964 | 1.1 | 1.06 | 0.931 | 0.981 |
| NCI-H647 | 1.05 | 0.935 | 1.11 | 1.08 | 0.751 | 0.17 | 0.172 | 0.195 | 0.148 | 0.196 | 1.34 | 1.19 | 1.46 | 1.04 | 1.19 | 1.06 | 0.987 | 1.1 | 1.21 | 1.21 |
| NCI-H650 | 0.929 | 1.14 | 1.16 | – | 1.11 | 0.366 | 0.413 | 0.447 | 0.376 | 0.475 | 0.978 | 0.966 | 1.14 | 0.977 | 1.01 | 0.741 | 0.66 | 0.932 | 0.643 | 0.805 |
| NCI-H661 | 0.469 | 0.462 | 0.971 | 0.724 | 1.01 | 0.686 | 0.862 | 0.892 | 0.774 | 0.808 | 0.945 | 1.05 | 1.04 | 0.95 | 0.965 | 0.737 | 1.2 | 0.964 | 0.93 | 0.844 |
| NCI-H727 | 0.44 | 0.497 | 0.53 | 0.508 | 0.469 | – | 0.425 | 0.517 | 0.383 | 0.398 | 0.673 | 1.02 | 1 | 0.891 | 0.85 | 0.824 | 0.844 | 0.925 | 0.778 | 0.91 |
| NCI-H838 | 0.91 | 0.914 | 0.868 | 0.863 | 0.743 | 0.233 | 0.248 | 0.244 | 0.293 | 0.267 | 0.926 | 0.837 | 1.18 | 0.813 | 1.05 | 0.95 | 0.71 | 0.828 | 0.651 | 0.818 |
| NCI-H1355 | 0.719 | 0.512 | 0.483 | 0.51 | 0.587 | 0.399 | 0.463 | 0.341 | 0.386 | 0.375 | 0.914 | 0.797 | 1.04 | 0.758 | 0.968 | 1.06 | 1.1 | 1.07 | 0.746 | 1.01 |
| NCI-H1437 | 1.03 | 0.968 | 0.885 | 0.922 | 0.763 | 0.497 | 0.438 | 0.586 | 0.392 | 0.649 | 1.26 | 1.26 | 1.3 | 1.13 | 1.27 | 0.896 | 0.875 | 0.923 | 1.04 | 0.94 |
| NCI-H1563 | 0.881 | 0.94 | 0.968 | 0.98 | 0.828 | 0.48 | 0.41 | 0.498 | 0.404 | 0.434 | 0.989 | 0.932 | 0.87 | 0.877 | 0.895 | 0.833 | 0.865 | 0.907 | 0.814 | 0.868 |
| NCI-H1651 | 0.973 | 0.992 | 0.967 | 0.944 | 0.959 | 0.26 | 0.377 | 0.553 | 0.385 | 0.415 | 0.688 | 0.755 | 0.862 | 0.789 | 0.94 | 0.802 | 0.89 | 0.819 | 0.839 | 0.839 |
| NCI-H1666 | 0.44 | 0.597 | 0.447 | 0.472 | 0.298 | 0.734 | 0.737 | 0.699 | 0.522 | 0.582 | – | 0.889 | 0.91 | 1.03 | 1 | 0.91 | 1.17 | 1.03 | 0.744 | 0.832 |
| NCI-H1734 | 0.615 | 0.683 | 0.672 | 0.757 | 0.687 | 0.471 | 0.435 | 0.491 | 0.503 | 0.538 | 0.922 | 0.914 | 0.898 | 1.05 | 0.811 | 0.668 | 0.777 | 0.862 | 0.503 | 0.615 |
| NCI-H1755 | 0.869 | 0.856 | 0.826 | 0.815 | 0.548 | 0.331 | 0.417 | 0.355 | 0.185 | 0.321 | – | 0.927 | 0.975 | 0.897 | 0.828 | – | 0.804 | 0.866 | 0.816 | 0.828 |
| NCI-H1915 | 1.03 | 0.996 | 1.07 | 1.07 | 0.938 | 0.282 | 0.328 | 0.289 | 0.318 | 0.328 | – | 1.13 | – | 1.1 | 1.11 | – | 0.995 | 1.01 | 1.03 | 1.08 |
| NCI-H1944 | 0.723 | 0.726 | 0.782 | 0.795 | 0.646 | 0.202 | 0.208 | 0.328 | 0.243 | 0.282 | – | 0.832 | – | 0.793 | 0.85 | – | 1.15 | 0.59 | 0.988 | 1.1 |
| NCI-H1975 | 0.609 | 0.5 | 0.553 | 0.475 | 0.358 | 0.366 | 0.353 | 0.295 | 0.22 | 0.165 | 1.02 | 0.96 | 0.924 | – | 0.998 | 0.948 | 0.88 | 1.06 | 0.872 | 0.926 |
| NCI-H1993 | 0.683 | 0.683 | 0.719 | 0.644 | 0.619 | 0.532 | 0.513 | 0.52 | 0.545 | 0.485 | 0.864 | 0.862 | 0.828 | 0.638 | 0.742 | 0.942 | – | 0.883 | 0.755 | 0.718 |
| NCI-H2009 | 1.08 | 1.16 | 1.11 | 1.24 | 1.21 | 0.249 | 0.308 | 0.264 | 0.299 | 0.312 | 1.18 | 1.17 | 1.18 | 1.18 | 1.19 | 1.03 | 1.09 | 1 | 1.02 | 0.99 |
| NCI-H2023 | 0.616 | 0.506 | 0.561 | 0.516 | 0.563 | 0.456 | 0.427 | 0.434 | 0.348 | 0.338 | 0.786 | 0.721 | 0.745 | 0.836 | 0.73 | 0.638 | 0.737 | 0.645 | 0.493 | 0.589 |
| NCI-H2085 | 0.887 | 1.02 | 0.946 | 0.833 | 0.705 | 0.241 | 0.243 | 0.241 | 0.186 | 0.243 | 0.851 | 0.91 | 0.919 | 1.23 | 0.878 | 0.784 | 0.775 | 0.868 | 0.985 | 0.853 |
